Laboratory results taken from ChEMBL document CHEMBL5465560, “Selectivity Literature for EUbOPEN Chemogenomic Library” (2024).

Columns and labels:
[1] = molecular target: Ribosomal protein S6 kinase alpha-1 (Homo sapiens, UniProt Q15418); test: Selectivity interaction (Kinase panel (KiNativ target engagement assay in Jurkat cells)) EUB0001635a RPS6KA1; assay type: cell-based; settings: Selectivity number of off-targets 0.0, Selectivity number of targets 233.0, Source Knowledge https://www.sciencedirect.com/science/article/pii/S2451945619300674?via%3Dihub, at 1 µM
[2] = molecular target: Calcium/calmodulin-dependent protein kinase type 1D (Homo sapiens) (UniProt Q8IU85); test: Selectivity interaction (Kinase panel (Z-LYTE Assay)) EUB0001632a CAMK1D; settings: at 10 µM
[3] = molecular target: T1, Serine/threonine-protein kinase Sgk3 (Homo sapiens) (UniProt Q96BR1); test: Selectivity interaction (Upstate Kinase Profiler service (Millipore)) EUB0000056c SGK3; settings: at 1 µM
T1 sequence (whole entry): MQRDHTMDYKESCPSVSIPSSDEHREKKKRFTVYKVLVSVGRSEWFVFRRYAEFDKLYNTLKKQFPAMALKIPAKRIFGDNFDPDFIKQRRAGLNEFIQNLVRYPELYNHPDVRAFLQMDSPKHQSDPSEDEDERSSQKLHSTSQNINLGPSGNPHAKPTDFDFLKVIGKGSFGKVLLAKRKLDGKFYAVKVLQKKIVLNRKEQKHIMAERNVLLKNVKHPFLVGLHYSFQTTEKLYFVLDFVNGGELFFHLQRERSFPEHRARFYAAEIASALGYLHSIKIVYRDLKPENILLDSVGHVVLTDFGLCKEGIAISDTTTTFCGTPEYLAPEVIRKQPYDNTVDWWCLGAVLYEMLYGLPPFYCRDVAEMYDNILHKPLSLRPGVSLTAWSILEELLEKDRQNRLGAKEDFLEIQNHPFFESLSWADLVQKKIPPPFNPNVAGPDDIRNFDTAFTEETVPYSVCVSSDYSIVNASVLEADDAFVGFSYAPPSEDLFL

[4] = molecular target: Vascular endothelial growth factor receptor 2 (Homo sapiens, UniProt P35968); test: Selectivity interaction (Upstate Kinase Profiler service (Millipore)) EUB0000056c KDR; settings: at 1 µM
[5] = molecular target: Serine/threonine-protein kinase SIK1 (Homo sapiens) (UniProt P57059); test: Selectivity interaction (ProQinase) EUB0000171b SIK1
[6] = molecular target: Non-receptor tyrosine-protein kinase TYK2 (Homo sapiens, UniProt P29597); test: Selectivity interaction (KinomeScan (DiscoverX)) EUB0001619a TYK2; settings: at 1 µM
[7] = molecular target: T2, Serine/threonine-protein kinase 17A (Homo sapiens) (UniProt Q9UEE5); test: Selectivity interaction (KinomeScan (DiscoverX)) EUB0001619a STK17A; settings: at 1 µM
T2 sequence (whole entry): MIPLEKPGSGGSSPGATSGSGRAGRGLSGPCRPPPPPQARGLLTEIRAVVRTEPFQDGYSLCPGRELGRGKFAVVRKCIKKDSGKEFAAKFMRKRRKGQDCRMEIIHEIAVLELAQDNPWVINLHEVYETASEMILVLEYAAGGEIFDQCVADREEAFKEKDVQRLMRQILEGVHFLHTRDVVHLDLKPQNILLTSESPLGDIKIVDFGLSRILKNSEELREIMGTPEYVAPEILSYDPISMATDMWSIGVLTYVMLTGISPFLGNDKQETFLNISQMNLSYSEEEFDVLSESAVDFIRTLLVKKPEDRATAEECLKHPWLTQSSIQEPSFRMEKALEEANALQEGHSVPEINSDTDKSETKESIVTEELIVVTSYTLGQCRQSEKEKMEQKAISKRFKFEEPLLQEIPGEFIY

[8] = molecular target: Tyrosine-protein kinase BTK (Homo sapiens, UniProt Q06187); test: Selectivity interaction (KinomeScan (DiscoverX)) EUB0001619a BTK; settings: at 1 µM
[9] = molecular target: T2, Serine/threonine-protein kinase 17A (Homo sapiens); test: Selectivity interaction (Kinase panel (DSF assay)) EUB0001558a STK17A
[10] = molecular target: TRAF2 and NCK-interacting protein kinase (Homo sapiens) (UniProt Q9UKE5); test: Selectivity interaction (KinomeScan (DiscoverX)) EUB0000618a TNIK; settings: at 10 µM
[11] = molecular target: T3, Mitogen-activated protein kinase kinase kinase 2 (Homo sapiens) (UniProt Q9Y2U5); test: Selectivity interaction (KinomeScan (DiscoverX)) EUB0000618a MAP3K2; settings: at 10 µM
T3 sequence (whole entry): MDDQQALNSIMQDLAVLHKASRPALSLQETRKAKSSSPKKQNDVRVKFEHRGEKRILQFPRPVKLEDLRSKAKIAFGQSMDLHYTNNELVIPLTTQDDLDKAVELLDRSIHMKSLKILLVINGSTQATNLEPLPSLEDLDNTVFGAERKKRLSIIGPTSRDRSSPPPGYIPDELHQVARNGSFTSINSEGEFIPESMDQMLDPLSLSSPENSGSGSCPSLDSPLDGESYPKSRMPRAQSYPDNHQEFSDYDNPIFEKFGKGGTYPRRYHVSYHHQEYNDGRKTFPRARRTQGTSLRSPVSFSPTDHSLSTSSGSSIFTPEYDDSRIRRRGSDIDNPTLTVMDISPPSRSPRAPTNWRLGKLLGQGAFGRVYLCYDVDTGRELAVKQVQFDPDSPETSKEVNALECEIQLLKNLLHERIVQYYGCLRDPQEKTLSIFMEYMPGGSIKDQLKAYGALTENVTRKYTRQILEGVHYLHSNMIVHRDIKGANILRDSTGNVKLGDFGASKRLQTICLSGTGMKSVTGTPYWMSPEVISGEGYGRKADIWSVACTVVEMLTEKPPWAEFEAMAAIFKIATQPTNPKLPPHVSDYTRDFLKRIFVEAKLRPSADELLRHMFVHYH

[12] = molecular target: Tyrosine-protein kinase Fes/Fps (Homo sapiens) (UniProt P07332); test: Selectivity interaction (ActivX KiNativ screen (kinase selectivity in THP-1 cell lysates)) EUB0000639a FES; assay type: subcellular; settings: lysate
[13] = molecular target: T4, Scaffold protein ILK (Homo sapiens) (UniProt Q13418); test: Selectivity interaction (ActivX KiNativ screen (kinase selectivity in THP-1 cell lysates)) EUB0000639a ILK; assay type: subcellular; settings: lysate, at 0.01 µM
T4 sequence (whole entry): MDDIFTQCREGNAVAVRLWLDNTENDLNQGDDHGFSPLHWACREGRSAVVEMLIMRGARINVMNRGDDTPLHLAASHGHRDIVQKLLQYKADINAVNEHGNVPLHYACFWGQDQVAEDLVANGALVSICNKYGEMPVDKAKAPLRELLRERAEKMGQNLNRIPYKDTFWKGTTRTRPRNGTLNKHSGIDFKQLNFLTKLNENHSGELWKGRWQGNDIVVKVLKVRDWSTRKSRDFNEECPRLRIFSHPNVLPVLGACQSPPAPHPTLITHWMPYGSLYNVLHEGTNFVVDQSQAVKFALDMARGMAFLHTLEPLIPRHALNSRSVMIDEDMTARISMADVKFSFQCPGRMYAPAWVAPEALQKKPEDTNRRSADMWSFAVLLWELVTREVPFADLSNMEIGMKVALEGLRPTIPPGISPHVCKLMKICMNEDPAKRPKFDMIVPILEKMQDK

Sequence of Tyrosine-protein kinase Fes/Fps (Homo sapiens) (P07332 whole entry): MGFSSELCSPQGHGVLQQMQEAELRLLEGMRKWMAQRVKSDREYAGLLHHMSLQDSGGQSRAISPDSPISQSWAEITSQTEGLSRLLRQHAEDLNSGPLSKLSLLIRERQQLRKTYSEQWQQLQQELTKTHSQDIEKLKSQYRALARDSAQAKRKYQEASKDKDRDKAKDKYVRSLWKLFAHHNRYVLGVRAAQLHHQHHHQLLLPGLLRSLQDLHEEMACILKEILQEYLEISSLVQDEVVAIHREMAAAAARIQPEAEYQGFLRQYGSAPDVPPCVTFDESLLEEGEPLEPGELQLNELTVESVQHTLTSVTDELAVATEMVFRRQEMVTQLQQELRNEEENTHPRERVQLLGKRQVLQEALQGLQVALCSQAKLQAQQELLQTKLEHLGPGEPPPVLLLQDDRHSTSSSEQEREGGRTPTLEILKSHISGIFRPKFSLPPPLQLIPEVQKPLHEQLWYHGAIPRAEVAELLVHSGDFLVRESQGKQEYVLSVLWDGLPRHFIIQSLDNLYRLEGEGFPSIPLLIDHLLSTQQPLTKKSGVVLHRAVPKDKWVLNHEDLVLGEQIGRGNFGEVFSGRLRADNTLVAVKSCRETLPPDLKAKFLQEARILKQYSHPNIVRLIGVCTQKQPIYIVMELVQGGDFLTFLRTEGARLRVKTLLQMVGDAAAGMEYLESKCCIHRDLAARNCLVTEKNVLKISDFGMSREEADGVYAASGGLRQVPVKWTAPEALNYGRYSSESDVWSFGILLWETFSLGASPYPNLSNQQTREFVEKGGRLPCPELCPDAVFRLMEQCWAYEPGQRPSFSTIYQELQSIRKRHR
Sequence of Serine/threonine-protein kinase SIK1 (Homo sapiens) (P57059 whole entry): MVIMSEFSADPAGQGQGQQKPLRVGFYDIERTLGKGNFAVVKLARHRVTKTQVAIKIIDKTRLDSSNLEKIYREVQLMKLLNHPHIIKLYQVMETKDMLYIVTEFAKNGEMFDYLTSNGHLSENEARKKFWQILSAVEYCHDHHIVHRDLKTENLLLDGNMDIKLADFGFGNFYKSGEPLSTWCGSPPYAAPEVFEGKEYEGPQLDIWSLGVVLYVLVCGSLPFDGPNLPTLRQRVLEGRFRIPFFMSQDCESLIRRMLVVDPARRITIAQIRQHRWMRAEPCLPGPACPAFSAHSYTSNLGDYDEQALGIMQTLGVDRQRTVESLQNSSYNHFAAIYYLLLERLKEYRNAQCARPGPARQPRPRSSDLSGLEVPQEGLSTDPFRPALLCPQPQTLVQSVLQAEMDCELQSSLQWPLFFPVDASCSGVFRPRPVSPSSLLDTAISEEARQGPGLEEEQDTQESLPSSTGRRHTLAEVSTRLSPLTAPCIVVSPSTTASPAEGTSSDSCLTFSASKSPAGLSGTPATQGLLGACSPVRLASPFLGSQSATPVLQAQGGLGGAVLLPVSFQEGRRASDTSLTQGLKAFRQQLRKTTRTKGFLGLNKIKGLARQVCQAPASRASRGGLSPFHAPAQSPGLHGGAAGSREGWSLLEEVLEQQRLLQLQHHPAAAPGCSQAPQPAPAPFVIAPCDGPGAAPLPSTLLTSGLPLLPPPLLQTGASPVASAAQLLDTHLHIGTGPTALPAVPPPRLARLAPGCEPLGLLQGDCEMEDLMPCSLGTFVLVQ
Sequence of Calcium/calmodulin-dependent protein kinase type 1D (Homo sapiens) (Q8IU85 whole entry, looked up): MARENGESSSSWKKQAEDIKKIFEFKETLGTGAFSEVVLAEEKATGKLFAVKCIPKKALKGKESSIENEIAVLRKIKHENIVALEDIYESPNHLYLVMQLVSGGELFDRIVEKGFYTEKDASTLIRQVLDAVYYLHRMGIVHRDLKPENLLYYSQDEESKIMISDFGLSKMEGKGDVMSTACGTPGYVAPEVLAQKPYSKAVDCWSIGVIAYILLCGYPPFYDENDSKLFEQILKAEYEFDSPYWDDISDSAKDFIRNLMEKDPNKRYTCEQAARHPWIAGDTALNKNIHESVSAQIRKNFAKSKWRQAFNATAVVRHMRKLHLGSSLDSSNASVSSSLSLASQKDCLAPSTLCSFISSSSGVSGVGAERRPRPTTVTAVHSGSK
Sequence of TRAF2 and NCK-interacting protein kinase (Homo sapiens) (Q9UKE5 whole entry, looked up): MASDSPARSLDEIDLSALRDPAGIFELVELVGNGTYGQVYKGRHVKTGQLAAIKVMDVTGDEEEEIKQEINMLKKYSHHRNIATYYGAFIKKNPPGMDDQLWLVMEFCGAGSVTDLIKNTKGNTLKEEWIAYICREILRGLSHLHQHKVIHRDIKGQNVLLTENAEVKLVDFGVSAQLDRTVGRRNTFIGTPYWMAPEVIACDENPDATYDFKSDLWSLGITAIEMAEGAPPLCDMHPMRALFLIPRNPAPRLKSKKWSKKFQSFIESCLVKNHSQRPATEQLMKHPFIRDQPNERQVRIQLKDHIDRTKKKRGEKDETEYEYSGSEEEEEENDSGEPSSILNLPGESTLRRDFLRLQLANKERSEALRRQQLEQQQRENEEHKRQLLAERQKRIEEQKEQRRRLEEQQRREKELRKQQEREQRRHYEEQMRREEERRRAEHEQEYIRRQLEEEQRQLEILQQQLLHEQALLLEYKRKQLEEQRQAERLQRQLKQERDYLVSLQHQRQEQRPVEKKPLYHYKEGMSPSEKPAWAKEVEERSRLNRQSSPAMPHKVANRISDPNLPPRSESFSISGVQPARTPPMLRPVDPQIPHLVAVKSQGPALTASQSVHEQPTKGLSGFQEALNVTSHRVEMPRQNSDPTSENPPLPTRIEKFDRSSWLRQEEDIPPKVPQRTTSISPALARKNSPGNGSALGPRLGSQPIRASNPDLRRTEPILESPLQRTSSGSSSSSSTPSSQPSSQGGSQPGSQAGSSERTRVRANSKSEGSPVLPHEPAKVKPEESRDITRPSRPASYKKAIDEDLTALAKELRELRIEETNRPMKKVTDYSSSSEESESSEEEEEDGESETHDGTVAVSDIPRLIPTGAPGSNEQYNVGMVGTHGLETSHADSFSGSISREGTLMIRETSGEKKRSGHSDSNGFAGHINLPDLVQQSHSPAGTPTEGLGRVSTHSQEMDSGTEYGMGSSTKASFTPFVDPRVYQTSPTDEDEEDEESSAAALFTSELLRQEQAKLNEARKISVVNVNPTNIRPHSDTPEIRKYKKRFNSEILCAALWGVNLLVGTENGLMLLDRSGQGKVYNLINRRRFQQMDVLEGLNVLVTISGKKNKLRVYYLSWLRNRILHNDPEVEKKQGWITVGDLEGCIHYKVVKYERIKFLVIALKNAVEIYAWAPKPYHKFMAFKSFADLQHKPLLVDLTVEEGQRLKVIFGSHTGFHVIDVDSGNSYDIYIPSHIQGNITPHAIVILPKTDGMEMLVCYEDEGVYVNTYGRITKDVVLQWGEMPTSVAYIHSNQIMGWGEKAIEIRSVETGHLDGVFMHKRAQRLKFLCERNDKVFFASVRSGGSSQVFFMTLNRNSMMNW
Sequence of Ribosomal protein S6 kinase alpha-1 (Q15418 whole entry): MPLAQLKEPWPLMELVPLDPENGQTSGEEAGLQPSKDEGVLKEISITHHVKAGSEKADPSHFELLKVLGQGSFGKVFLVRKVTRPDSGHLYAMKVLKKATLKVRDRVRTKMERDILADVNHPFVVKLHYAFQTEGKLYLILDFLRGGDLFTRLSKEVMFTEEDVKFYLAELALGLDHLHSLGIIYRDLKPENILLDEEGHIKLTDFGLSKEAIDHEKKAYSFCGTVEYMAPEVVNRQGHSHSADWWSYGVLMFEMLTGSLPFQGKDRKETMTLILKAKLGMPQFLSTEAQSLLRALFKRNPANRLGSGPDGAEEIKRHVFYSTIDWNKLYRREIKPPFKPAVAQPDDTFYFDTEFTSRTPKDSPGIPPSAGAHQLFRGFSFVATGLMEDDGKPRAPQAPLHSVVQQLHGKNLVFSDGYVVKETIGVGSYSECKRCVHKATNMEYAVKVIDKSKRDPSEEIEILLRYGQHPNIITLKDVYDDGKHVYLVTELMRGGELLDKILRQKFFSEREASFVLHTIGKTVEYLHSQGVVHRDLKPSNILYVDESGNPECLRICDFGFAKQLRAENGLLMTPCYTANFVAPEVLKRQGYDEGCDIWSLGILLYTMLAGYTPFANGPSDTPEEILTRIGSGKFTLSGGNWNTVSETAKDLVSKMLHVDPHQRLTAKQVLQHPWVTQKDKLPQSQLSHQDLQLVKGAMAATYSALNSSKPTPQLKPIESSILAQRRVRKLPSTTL
Sequence of Tyrosine-protein kinase BTK (Q06187 whole entry): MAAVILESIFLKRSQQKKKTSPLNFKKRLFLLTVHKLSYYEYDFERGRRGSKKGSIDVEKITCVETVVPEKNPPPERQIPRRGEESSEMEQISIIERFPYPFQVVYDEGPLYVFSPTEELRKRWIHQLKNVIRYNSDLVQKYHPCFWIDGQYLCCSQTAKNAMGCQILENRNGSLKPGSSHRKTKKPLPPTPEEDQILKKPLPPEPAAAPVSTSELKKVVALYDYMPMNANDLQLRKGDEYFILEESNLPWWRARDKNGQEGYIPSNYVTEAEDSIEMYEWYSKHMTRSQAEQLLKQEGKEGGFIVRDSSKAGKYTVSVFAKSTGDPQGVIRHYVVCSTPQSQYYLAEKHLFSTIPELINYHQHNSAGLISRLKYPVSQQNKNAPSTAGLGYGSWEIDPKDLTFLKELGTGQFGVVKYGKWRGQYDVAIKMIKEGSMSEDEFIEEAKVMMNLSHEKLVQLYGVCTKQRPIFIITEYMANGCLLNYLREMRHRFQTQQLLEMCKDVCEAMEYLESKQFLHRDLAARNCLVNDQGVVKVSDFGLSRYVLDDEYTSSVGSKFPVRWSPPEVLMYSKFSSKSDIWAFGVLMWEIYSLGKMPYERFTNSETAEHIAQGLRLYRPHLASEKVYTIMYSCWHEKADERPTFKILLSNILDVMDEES

C=CC(=O)Nc1ccc(C(=O)Nc2[nH]nc3c2CN(C(=O)N[C@H](CN(C)C)c2ccccc2)C3(C)C)cc1
% of engagement [1]: 1.2%

Cn1cc(-n2cnc3c(NCc4nc5cc(Cl)c(Cl)cc5[nH]4)nc(N4CCOCC4)nc32)cn1
% of control [2]: 2.81%

Cc1ccc(-c2ccc3c(ccc4sc5c(c43)NC[C@@H](C)NC5=O)n2)cn1
% of inhibition [3]: -1% | % of inhibition [4]: 32%

C=CC(=O)Nc1cccc(C(=O)Nc2ccc(Nc3cc(-c4[nH]c(SC)nc4C)ccn3)cc2)c1
% of control ([5]; at 1 µM): 107% | % of control ([5]; at 5 µM): 102%

N#Cc1cccc(-c2c[nH]c3ncnc(N4CCOCC4)c23)c1
% of control [6]: 69% | % of control [7]: 88% | % of control [8]: 100%

CC(C)(O)[C@H](F)CN1Cc2cc(NC(=O)c3cnn4cccnc34)c(N3CCOCC3)cc2C1=O
dTM [9]: 0.9 K

O[C@H]1CC[C@H](Nc2ncc3nc(Nc4c(F)cc(F)cc4F)n([C@H]4CCOC4)c3n2)CC1
% of control [10]: 83% | % of control [11]: 82%

CC[C@@H]1[C@H](F)C(=O)N[C@@H]1COc1nccc2cc(C(N)=O)c(OC)cc12 [ZIMLOVISERTIB]
% of inhibition ([12]; at 0.01 µM): 0.3% | % of inhibition ([12]; at 0.04 µM): 2.2% | % of inhibition ([12]; at 0.2 µM): 5.7% | % of inhibition ([12]; at 1 µM): 0.6% | % of inhibition ([12]; at 5 µM): -23.7% | % of inhibition [13]: 3.1%
